Results published in the kinase profiling compilation of Christmann-Franck et al. (2016).

What was measured:
Experiment in all cases: KINOMEscan competition binding
Conditions in all cases: compound 10.0 µM
AKT1 (human) = AKT1 (human) (UniProt P31749)
ALK (human) = ALK (human) (UniProt Q9UM73)
AURKA (human) = AURKA (human) (UniProt O14965)
BMPR1A (human) = BMPR1A (human) (UniProt P36894)
BRSK1 (human) = BRSK1 (human) (UniProt Q8TDC3)
CDK17 (human) = CDK17 (human) (UniProt Q00537)
CDKL2 (human) = CDKL2 (human) (UniProt Q92772)
CDKL2 (human), sequence (Q92772 whole entry, looked up): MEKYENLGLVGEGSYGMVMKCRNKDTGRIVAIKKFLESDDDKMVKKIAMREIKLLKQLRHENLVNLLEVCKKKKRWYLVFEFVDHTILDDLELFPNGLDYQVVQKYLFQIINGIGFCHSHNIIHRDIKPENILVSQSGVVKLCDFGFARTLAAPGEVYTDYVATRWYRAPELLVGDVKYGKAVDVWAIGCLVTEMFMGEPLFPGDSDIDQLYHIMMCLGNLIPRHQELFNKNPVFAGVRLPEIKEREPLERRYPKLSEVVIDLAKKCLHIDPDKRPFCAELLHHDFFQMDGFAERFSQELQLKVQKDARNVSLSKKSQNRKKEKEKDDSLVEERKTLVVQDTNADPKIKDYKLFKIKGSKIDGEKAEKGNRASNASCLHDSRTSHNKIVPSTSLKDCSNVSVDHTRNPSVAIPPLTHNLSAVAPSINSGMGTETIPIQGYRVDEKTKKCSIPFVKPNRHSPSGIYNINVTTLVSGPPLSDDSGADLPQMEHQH

CDKL3 (human) = CDKL3 (human) (UniProt Q8IVW4)
CLK2 (human) = CLK2 (human) (UniProt P49760)
DAPK2 (human) = DAPK2 (human) (UniProt Q9UIK4)
DSTYK (human) = DSTYK (human) (UniProt Q6XUX3)
DYRK1A (human) = DYRK1A (human) (UniProt Q13627)
[1] = system: EGFR (human), P00533 [T790M/L858R]
EPHA1 (human) = EPHA1 (human) (UniProt P21709)
ERN1 (human) = ERN1 (human) (UniProt O75460)
FES (human) = FES (human) (UniProt P07332)
FLT1 (human) = FLT1 (human) (UniProt P17948)
HUNK (human) = HUNK (human) (UniProt P57058)
MAP3K7 (human) = MAP3K7 (human) (UniProt O43318)
MAPK9 (human) = MAPK9 (human) (UniProt P45984)
MARK1 (human) = MARK1 (human) (UniProt Q9P0L2)
MARK1 (human), sequence (Q9P0L2 whole entry, looked up): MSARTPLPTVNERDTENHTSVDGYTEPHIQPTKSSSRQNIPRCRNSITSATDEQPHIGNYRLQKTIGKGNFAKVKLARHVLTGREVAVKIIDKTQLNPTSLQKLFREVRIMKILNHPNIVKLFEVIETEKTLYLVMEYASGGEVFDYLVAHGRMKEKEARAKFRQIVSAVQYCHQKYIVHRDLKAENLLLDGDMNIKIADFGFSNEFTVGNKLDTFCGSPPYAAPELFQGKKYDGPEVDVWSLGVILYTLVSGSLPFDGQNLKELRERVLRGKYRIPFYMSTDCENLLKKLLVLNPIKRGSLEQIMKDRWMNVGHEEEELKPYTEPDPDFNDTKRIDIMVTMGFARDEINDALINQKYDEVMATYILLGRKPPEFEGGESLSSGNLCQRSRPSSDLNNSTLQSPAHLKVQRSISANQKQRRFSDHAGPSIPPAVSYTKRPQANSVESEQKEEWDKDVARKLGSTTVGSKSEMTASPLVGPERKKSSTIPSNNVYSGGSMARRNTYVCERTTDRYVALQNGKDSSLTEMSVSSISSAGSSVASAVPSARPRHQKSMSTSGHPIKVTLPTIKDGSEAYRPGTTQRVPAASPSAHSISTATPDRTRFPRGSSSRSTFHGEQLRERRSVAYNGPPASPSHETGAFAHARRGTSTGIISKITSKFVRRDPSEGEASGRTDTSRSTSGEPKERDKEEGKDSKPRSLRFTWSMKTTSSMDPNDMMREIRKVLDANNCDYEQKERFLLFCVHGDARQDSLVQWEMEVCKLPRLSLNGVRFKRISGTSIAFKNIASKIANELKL

[2] = system: MET (human), P08581 [M1250T]
[3] = system: MET (human), P08581 [Y1235D]
MYLK4 (human) = MYLK4 (human) (UniProt Q86YV6)
MYO3B (human) = MYO3B (human) (UniProt Q8WXR4)
MYO3B (human), sequence (Q8WXR4 whole entry, looked up): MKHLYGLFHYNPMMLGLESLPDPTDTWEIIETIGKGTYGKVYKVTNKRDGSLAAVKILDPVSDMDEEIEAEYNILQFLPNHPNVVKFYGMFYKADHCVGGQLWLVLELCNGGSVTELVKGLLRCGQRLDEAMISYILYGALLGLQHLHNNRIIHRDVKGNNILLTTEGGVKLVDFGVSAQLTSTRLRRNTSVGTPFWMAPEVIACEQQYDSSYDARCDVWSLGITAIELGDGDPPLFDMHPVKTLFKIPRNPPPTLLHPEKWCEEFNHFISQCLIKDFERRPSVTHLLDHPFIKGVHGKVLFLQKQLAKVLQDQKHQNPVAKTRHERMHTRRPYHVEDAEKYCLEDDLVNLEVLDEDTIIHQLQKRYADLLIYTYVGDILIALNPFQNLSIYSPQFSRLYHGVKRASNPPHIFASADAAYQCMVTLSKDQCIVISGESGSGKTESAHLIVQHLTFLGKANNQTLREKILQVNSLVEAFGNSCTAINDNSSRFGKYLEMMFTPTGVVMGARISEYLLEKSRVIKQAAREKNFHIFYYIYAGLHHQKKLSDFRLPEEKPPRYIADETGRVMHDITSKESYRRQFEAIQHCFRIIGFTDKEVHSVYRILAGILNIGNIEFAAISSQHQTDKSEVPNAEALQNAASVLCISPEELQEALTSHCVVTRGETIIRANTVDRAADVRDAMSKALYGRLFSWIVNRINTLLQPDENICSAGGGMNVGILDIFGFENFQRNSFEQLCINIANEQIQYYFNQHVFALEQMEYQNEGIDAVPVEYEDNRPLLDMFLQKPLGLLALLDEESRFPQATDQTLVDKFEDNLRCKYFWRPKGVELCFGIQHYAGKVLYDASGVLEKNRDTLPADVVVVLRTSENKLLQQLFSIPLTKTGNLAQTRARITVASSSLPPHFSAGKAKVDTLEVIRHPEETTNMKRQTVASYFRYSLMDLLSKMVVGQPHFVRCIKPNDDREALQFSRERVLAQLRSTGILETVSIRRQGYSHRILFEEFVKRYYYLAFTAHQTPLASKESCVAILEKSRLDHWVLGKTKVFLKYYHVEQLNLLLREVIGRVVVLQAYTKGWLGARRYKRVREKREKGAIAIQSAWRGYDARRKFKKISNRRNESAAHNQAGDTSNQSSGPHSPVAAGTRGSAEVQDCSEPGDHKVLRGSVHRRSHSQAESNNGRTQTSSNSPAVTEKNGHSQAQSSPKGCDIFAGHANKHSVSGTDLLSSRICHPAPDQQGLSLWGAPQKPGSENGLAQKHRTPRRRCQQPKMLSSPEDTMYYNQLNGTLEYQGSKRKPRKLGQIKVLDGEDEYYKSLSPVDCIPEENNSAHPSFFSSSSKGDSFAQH

NEK7 (human) = NEK7 (human) (UniProt Q8TDX7)
PIK3C2B (human) = PIK3C2B (human) (UniProt O00750)
[4] = system: PIK3CA (human), P42336 [E542K]
PKN1 (human) = PKN1 (human) (UniProt Q16512)
PRKCD (human) = PRKCD (human) (UniProt Q05655)
PRKD1 (human) = PRKD1 (human) (UniProt Q15139)
PRKG1 (human) = PRKG1 (human) (UniProt Q13976)
[5] = system: RET (human), P07949 [V804L]
RPS6KA1 KD1 (human) = RPS6KA1 KD1 (human) (UniProt Q15418)
RPS6KA4 KD1 (human) = RPS6KA4 KD1 (human) (UniProt O75676)
RPS6KA4 KD2 (human) = RPS6KA4 KD2 (human) (UniProt O75676)
STK32A (human) = STK32A (human) (UniProt Q8WU08)
TLK2 (human) = TLK2 (human) (UniProt Q86UE8)
TLK2 (human), sequence (Q86UE8 whole entry, looked up): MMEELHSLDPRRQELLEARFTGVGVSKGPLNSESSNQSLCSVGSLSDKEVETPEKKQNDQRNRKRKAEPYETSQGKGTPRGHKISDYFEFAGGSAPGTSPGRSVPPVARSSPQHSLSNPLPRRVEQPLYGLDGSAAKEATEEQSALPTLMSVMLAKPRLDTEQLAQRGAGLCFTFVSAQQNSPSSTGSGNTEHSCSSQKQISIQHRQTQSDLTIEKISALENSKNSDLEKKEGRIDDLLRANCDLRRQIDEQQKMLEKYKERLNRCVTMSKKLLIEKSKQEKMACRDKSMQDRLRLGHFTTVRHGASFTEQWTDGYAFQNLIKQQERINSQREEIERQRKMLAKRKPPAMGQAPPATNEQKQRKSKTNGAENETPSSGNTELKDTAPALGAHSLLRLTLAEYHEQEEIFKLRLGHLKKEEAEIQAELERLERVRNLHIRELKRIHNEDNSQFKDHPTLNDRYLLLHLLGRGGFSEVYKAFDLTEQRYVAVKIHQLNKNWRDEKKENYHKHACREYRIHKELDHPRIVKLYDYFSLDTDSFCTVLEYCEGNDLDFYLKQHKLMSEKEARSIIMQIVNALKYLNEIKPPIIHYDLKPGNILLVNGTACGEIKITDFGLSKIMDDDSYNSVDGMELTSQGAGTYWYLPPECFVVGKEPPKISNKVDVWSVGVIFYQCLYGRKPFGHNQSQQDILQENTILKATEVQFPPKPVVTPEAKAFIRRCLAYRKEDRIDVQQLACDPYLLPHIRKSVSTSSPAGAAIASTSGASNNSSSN

TNK1 (human) = TNK1 (human) (UniProt Q13470)
TYRO3 (human) = TYRO3 (human) (UniProt Q06418)
VRK2 (human) = VRK2 (human) (UniProt Q86Y07)

ALK (human), sequence (Q9UM73 whole entry, looked up): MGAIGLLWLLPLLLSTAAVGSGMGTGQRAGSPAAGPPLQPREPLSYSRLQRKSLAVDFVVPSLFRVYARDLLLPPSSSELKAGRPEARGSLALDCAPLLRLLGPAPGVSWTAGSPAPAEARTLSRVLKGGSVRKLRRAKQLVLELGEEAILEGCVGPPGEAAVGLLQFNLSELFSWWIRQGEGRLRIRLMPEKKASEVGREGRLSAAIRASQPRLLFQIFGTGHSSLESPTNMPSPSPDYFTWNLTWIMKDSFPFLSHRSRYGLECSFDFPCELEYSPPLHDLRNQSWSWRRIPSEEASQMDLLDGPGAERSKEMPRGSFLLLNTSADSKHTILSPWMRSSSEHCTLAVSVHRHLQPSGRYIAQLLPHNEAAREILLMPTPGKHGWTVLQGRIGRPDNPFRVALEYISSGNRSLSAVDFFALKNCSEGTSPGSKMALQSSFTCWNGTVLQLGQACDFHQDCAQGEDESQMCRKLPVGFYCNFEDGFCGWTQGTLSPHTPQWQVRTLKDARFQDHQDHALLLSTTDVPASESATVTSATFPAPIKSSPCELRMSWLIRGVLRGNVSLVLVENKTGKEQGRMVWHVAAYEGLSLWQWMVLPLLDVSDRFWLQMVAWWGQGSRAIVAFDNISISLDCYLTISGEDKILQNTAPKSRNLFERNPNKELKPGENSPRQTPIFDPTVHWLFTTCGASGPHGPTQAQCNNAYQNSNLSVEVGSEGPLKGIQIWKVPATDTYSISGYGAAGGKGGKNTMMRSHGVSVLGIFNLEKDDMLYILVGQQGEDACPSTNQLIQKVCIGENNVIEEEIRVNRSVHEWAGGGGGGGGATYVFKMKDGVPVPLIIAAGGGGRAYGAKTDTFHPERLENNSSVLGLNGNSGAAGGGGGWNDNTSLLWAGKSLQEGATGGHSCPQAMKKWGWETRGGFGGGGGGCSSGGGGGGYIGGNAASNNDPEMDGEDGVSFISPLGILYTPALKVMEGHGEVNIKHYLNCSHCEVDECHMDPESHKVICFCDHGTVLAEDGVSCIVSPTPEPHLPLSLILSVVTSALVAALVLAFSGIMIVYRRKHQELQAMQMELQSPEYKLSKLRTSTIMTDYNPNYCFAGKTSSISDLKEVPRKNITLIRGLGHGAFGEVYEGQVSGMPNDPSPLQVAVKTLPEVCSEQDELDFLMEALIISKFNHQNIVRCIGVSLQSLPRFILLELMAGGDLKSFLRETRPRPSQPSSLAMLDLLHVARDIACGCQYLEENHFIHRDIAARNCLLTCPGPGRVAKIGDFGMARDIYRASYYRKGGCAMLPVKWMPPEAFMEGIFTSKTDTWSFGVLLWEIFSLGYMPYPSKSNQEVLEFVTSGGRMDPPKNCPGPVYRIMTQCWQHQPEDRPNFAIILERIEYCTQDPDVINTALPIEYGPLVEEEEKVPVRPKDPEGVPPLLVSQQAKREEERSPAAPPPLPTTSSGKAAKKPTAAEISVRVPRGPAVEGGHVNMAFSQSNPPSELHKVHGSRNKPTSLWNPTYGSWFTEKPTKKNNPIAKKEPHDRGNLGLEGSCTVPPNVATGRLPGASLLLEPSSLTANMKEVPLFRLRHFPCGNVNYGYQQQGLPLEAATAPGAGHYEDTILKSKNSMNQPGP

In the case of COc1ccc(-c2ccc3c(N4CCOCC4)nc(N4C[C@@H](C)O[C@@H](C)C4)nc3n2)cc1CO, the kinase still bound, per cent of control (AKT1 (human)) is reported as 88%, the kinase still bound, per cent of control (ALK (human)) is reported as 100% and the kinase still bound, per cent of control (AURKA (human)) is reported as 80%. For the same compound, the kinase still bound, per cent of control (BMPR1A (human)) was 70%, the kinase still bound, per cent of control (BRSK1 (human)) was 100% and the per cent of control (CDK17 (human)) was 100%. It also gave a per cent of control (CDKL2 (human)) of 95%, a per cent of control (CDKL3 (human)) of 90% and a kinase still bound, per cent of control (CLK2 (human)) of 64%. It also gave a kinase still bound, per cent of control (DAPK2 (human)) of 80%, a kinase still bound, per cent of control (DSTYK (human)) of 78% and a kinase still bound, per cent of control (DYRK1A (human)) of 94%. The kinase still bound, per cent of control [1] was 100%, the kinase still bound, per cent of control (EPHA1 (human)) was 96% and the kinase still bound, per cent of control (ERN1 (human)) was 89%. It also gave a kinase still bound, per cent of control (FES (human)) of 99%, a kinase still bound, per cent of control (FLT1 (human)) of 92% and a kinase still bound, per cent of control (HUNK (human)) of 90%. It also gave a kinase still bound, per cent of control (MAP3K7 (human)) of 99%, a kinase still bound, per cent of control (MAPK9 (human)) of 76% and a kinase still bound, per cent of control (MARK1 (human)) of 100%. The kinase still bound, per cent of control [2] was 100%, the kinase still bound, per cent of control [3] was 100% and the kinase still bound, per cent of control (MYLK4 (human)) was 92%. For the same compound, the kinase still bound, per cent of control (MYO3B (human)) was 100%, the kinase still bound, per cent of control (NEK7 (human)) was 100% and the kinase still bound, per cent of control (PIK3C2B (human)) was 85%. It also gave a kinase still bound, per cent of control [4] of 2.8%, a kinase still bound, per cent of control (PKN1 (human)) of 94% and a kinase still bound, per cent of control (PRKCD (human)) of 100%. It also gave a kinase still bound, per cent of control (PRKD1 (human)) of 91%, a kinase still bound, per cent of control (PRKG1 (human)) of 91% and a kinase still bound, per cent of control [5] of 100%. For the same compound, the kinase still bound, per cent of control (RPS6KA1 KD1 (human)) was 70%, the kinase still bound, per cent of control (RPS6KA4 KD1 (human)) was 96% and the kinase still bound, per cent of control (RPS6KA4 KD2 (human)) was 95%. It also gave a kinase still bound, per cent of control (STK32A (human)) of 67%, a kinase still bound, per cent of control (TLK2 (human)) of 87% and a kinase still bound, per cent of control (TNK1 (human)) of 100%. The kinase still bound, per cent of control (TYRO3 (human)) was 100% and the kinase still bound, per cent of control (VRK2 (human)) was 87%.
